Marks after values point to notes of the source that are not given here.
Tests used:
Assay type in all cases: in vivo, human
[1] = tested on: patients with primary hypercholesterolemia; assay: Non-cholesterol sterol analysis of plasma by GC-MS, EZE/SIMVA trial (Example 2); conditions: for effect on concentrations of sitosterol and campesterol (baseline to endpoint), in words: FIG. 6; for Campesterol Ratio: Mean change (sterol:cholesterol) / Desmosterol Ratio: Mean change (sterol:cholesterol) / Lathosterol Ratio: Mean change (sterol:cholesterol) / Sitosterol Ratio: Mean change (sterol:cholesterol) / Campesterol % change (Mean % change) / Desmosterol % change (Mean % change) / Lathosterol % change (Mean % change) / Sitosterol % change (Mean % change): baseline to endpoint, 12 weeks daily treatment, EZE 10 mg; for Campesterol Ratio: Mean change (sterol:cholesterol) / Desmosterol Ratio: Mean change (sterol:cholesterol) / Lathosterol Ratio: Mean change (sterol:cholesterol) / Sitosterol Ratio: Mean change (sterol:cholesterol) / Campesterol % change (Mean % change) / Desmosterol % change (Mean % change) / Lathosterol % change (Mean % change): SIMVA pool of all doses; for Campesterol % change (Mean % change) / Desmosterol % change (Mean % change) / Lathosterol % change (Mean % change) / Sitosterol % change (Mean % change): plasma concentration; for Sitosterol % change (Mean % change): SIMVA pool of all doses 10-80 mg
Method: (§1) A post-hoc analysis of a randomized, double-blind, placebo-controlled trial of primary hypercholesterolemia patients (LDL-C 145-250 mg/dl and TG≦350 mg/dl) was conducted to examine the effects of 12 weeks of daily treatment with ezetimibe (EZE) 10 mg, simvastatin (SIMVA) pooled doses 10-80 mg, or EZE 10 mg/SIMVA 10-80 mg (EZE/SIMVA) coadministration (pooled) on concentrations of phytosterols (sitosterol and campesterol) and cholesterol precursors (lathosterol and desmosterol). Baseline and endpoint plasma samples of 578 patients were analyzed by GC-mass spectrometry
Following a 4 week placebo lead-in/diet phase, patients with primary hypercholesterolemia (LDL-C 145-250 mg/dL and TG≦350 mg/dL) were randomized on one of the following daily treatments for 12 weeks:
Of 668 patients randomized to treatment in the original study, 578 (86%) had evaluable −70° C. plasma samples for both baseline and endpoint visits. Concentrations of non-cholesterol sterols were measured by gas chromatography-mass spectrometry (GC-MS).
(§2) The primary efficacy parameter was mean percent change in plasma sitosterol concentration from baseline to endpoint comparing EZE/SIMVA (pooled across doses) versus SIMVA monotherapy (pooled across doses). Other efficacy parameters included mean percent changes in campesterol, lathosterol and desmosterol concentrations as well as mean changes in the ratios of each of these sterols to cholesterol.
(§3) Two-tailed testing was conducted at a=0.05. To compare treatment effects on sterol concentrations and ratios, an ANCOVA model including the fixed effects of treatment, dose, and dose-by-treatment interaction was used with the baseline value as the covariate.

[2] = tested on: patients with primary hypercholesterolemia; assay: LDL-C and other lipid parameters by treatment, EZE/SIMVA trial (Example 2); conditions: 12 weeks daily treatment, EZE 10 mg, pooled SIMVA 10-80 mg; for Triglycerides (median) % Change (±SE) from Baseline: median and SE from raw data
Method: as §1
Following a 4 week placebo lead-in/diet phase, patients with primary hypercholesterolemia (LDL-C 145-250 mg/dL and TG≦350 mg/dL) were randomized on one of the following daily treatments for 12 weeks: […]

[3] = tested on: patients with primary hypercholesterolemia; assay: Non-cholesterol sterol analysis of plasma by GC-MS, EZE/ATORVA trial (Example 3); conditions: for effect on concentrations of sitosterol and campesterol (baseline to endpoint), in words: FIG. 11; for effect on concentrations of sitosterol and campesterol (baseline to endpoint), in words / effect on concentrations of cholesterol precursors lathosterol and desmosterol (baseline to endpoint), in words / effect on ratios of sitosterol:cholesterol and campesterol:cholesterol, in words / effect on ratios of lathosterol:cholesterol and desmosterol:cholesterol, in words: pooled doses, 12 weeks; for effect on concentrations of cholesterol precursors lathosterol and desmosterol (baseline to endpoint), in words: FIG. 13; for effect on ratios of sitosterol:cholesterol and campesterol:cholesterol, in words: Table in FIG. 11; for effect on ratios of lathosterol:cholesterol and desmosterol:cholesterol, in words: Table in FIG. 13; for Campesterol Noncholesterols:Cholesterol Ratio: Mean change / Desmosterol Noncholesterols:Cholesterol Ratio: Mean change / Lathosterol Noncholesterols:Cholesterol Ratio: Mean change / Sitosterol Noncholesterols:Cholesterol Ratio: Mean change / Campesterol % chng LSmean (absolute sterol concentrations) / Desmosterol % chng LSmean (absolute sterol concentrations) / Lathosterol % chng LSmean (absolute sterol concentrations) / Sitosterol % chng LSmean (absolute sterol concentrations): baseline to endpoint, 12 weeks daily treatment, EZE 10 mg, ATORVA pooled; for Campesterol % chng LSmean (absolute sterol concentrations) / Desmosterol % chng LSmean (absolute sterol concentrations) / Lathosterol % chng LSmean (absolute sterol concentrations) / Sitosterol % chng LSmean (absolute sterol concentrations): plasma
Method: (§4) A post-hoc analysis of a randomized, double-blind, placebo-controlled trial of primary hypercholesterolemia patients (LDL-C 145-250 mg/dl and TG<350 mg/dl) was conducted. Baseline and endpoint samples of 397 patients were analyzed by GCMS
In this trial, following a 4 week placebo lead-in/diet phase, patients with primary hypercholesterolemia (LDL-C 3.8-6.5 mmol/L [145-250 mg/dL] and TG≦4 mmol/L [350 mg/dL]) were randomized to one of the following daily treatments for 12 weeks:
Of 628 patients randomized to treatment in the original study, 397 (63%) had evaluable −70° C. plasma samples for both baseline and endpoint visits.
Concentrations of non-cholesterol sterols were measured by gas chromatography-mass spectrometry (GC-MS).
as §2, with “EZE/ATORVA” for “EZE/SIMVA”, “ATORVA” for “SIMVA monotherapy”
as §3

[4] = tested on: patients with primary hypercholesterolemia; assay: LDL-C and other lipid parameters by treatment, EZE/ATORVA trial (Example 3); conditions: 12 weeks daily treatment, EZE 10 mg, pooled ATORVA 10-80 mg; for Triglycerides (median) % Change (±SE) from Baseline: median and SE from raw data
Method: as §4
In this trial, following a 4 week placebo lead-in/diet phase, patients with primary hypercholesterolemia (LDL-C 3.8-6.5 mmol/L [145-250 mg/dL] and TG≦4 mmol/L [350 mg/dL]) were randomized to one of the following daily treatments for 12 weeks: […]

Row | Structure (SMILES) | effect on concentrations of sitosterol and campesterol (baseline to endpoint), in words ([1]; pooled doses, 12 weeks) | Campesterol Ratio: Mean change (sterol:cholesterol) [1] | Desmosterol Ratio: Mean change (sterol:cholesterol) [1] | Lathosterol Ratio: Mean change (sterol:cholesterol) [1] | Sitosterol Ratio: Mean change (sterol:cholesterol) [1] | Campesterol % change (Mean % change) [1] | Desmosterol % change (Mean % change) [1] | Lathosterol % change (Mean % change) [1] | Sitosterol % change (Mean % change) [1] | HDL-C LS Mean % Change (±SE) from Baseline [2] [%] | LDL-C LS Mean % Change (±SE) from Baseline [2] [%] | Total Cholesterol LS Mean % Change (±SE) from Baseline [2] [%] | Triglycerides (median) % Change (±SE) from Baseline [2] [%] | effect on concentrations of sitosterol and campesterol (baseline to endpoint), in words [3] | effect on concentrations of cholesterol precursors lathosterol and desmosterol (baseline to endpoint), in words [3] | effect on ratios of sitosterol:cholesterol and campesterol:cholesterol, in words [3] | effect on ratios of lathosterol:cholesterol and desmosterol:cholesterol, in words [3] | Campesterol Noncholesterols:Cholesterol Ratio: Mean change [3] | Desmosterol Noncholesterols:Cholesterol Ratio: Mean change [3] | Lathosterol Noncholesterols:Cholesterol Ratio: Mean change [3] | also measured
1 | CCC(C)(C)C(=O)O[C@H]1C[C@@H](C)C=C2C=C[C@H](C)[C@H](CC[C@@H]3C[C@@H](O)CC(=O)O3)[C@H]21 [SIMVA, simvastatin] | no significant effect | 39.8* 10^2 mmol/mol | −22.8* 10^2 mmol/mol | −37.8* 10^2 mmol/mol | 21.4* 10^2 mmol/mol | −1.6* % | −48.0* % | −53.5* % | −3.3* % | 7.2 ± 0.8 | −37.1 ± 0.9 | −26.8 ± 0.7 | −20.4 ± 1.5 |  |  |  |  |  |  |  | 
2 | CC(C)c1c(C(=O)Nc2ccccc2)c(-c2ccccc2)c(-c2ccc(F)cc2)n1CC[C@@H](O)C[C@@H](O)CC(=O)O [ATORVA, atorvastatin] |  |  |  |  |  |  |  |  |  |  |  |  |  | significantly increased | large, significant reductions | significantly increased | significantly reduced | 128*^† 10^2 mmol/mol | −34.5*^† 10^2 mmol/mol | −69.8*^† 10^2 mmol/mol | Sitosterol Noncholesterols:Cholesterol Ratio: Mean change [3]: 77.4*^† 10^2 mmol/mol; Campesterol % chng LSmean (absolute sterol concentrations) [3]: 10.1^† %; Desmosterol % chng LSmean (absolute sterol concentrations) [3]: −55.4*^† %; Lathosterol % chng LSmean (absolute sterol concentrations) [3]: −69.0*^† %; Sitosterol % chng LSmean (absolute sterol concentrations) [3]: 16.1^† %; HDL-C LS Mean % Change (±SE) from Baseline [4]: 5.21 (0.85) %; LDL-C LS Mean % Change (±SE) from Baseline [4]: −43.56 (1.02) %; Total Cholesterol LS Mean % Change (±SE) from Baseline [4]: −32.96 (0.81) %; Triglycerides (median) % Change (±SE) from Baseline [4]: −25.83 (1.80) %
3 | O=C1[C@H](CC[C@H](O)c2ccc(F)cc2)[C@@H](c2ccc(O)cc2)N1c1ccc(F)cc1 [EZE, ezetimibe] | large, significant reductions | −78.6* 10^2 mmol/mol | 25.7* 10^2 mmol/mol | 36.8* 10^2 mmol/mol | −37.8* 10^2 mmol/mol | −50.5* % | 16.1% | 35.5* % | −46.5* % | 5.5 ± 1.6 | −18.5 ± 1.8 | −13.5 ± 1.4 | −8.6 ± 3.9 | large, significant reductions | significantly increased | significantly reduced | increased | −151* 10^2 mmol/mol | 38.1 10^2 mmol/mol | 56.2* 10^2 mmol/mol | Sitosterol Noncholesterols:Cholesterol Ratio: Mean change [3]: −70.1* 10^2 mmol/mol; Campesterol % chng LSmean (absolute sterol concentrations) [3]: −58.2* %; Desmosterol % chng LSmean (absolute sterol concentrations) [3]: 20.6* %; Lathosterol % chng LSmean (absolute sterol concentrations) [3]: 34.5* %; Sitosterol % chng LSmean (absolute sterol concentrations) [3]: −53.8* %; effect on concentrations of cholesterol precursors lathosterol and desmosterol (baseline to endpoint), in words ([1]; FIG. 8, pooled doses, 12 weeks): increased; effect on ratios of sitosterol:cholesterol and campesterol:cholesterol, in words ([1]; Table in FIG. 6, pooled doses, 12 weeks): significantly reduced; effect on ratios of lathosterol:cholesterol and desmosterol:cholesterol, in words ([1]; Table in FIG. 8, pooled doses, 12 weeks): significantly increased; HDL-C LS Mean % Change (±SE) from Baseline [4]: 5.36 (1.71) %; LDL-C LS Mean % Change (±SE) from Baseline [4]: −17.10 (2.06) %; Total Cholesterol LS Mean % Change (±SE) from Baseline [4]: −12.97 (1.63) %; Triglycerides (median) % Change (±SE) from Baseline [4]: −2.86 (4.54) %
